Experimental findings from patent US8318785B2, “Pharmaceutical compounds” (Orion Corporation, priority 2005, dated 2012) are described below.

The structures appear in SMILES notation.

The target of data set [1] is T1, recombinant human soluble form of COMT (hS-COMT) (Homo sapiens, UniProt P21964).
T1 sequence (P21964 1-221 isoform P21964-2): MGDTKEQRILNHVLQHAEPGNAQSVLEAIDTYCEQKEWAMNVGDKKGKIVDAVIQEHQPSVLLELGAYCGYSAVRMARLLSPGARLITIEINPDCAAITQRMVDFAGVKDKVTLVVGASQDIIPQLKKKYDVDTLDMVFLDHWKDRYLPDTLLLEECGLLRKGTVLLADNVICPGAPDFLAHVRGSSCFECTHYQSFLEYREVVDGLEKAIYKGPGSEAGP
The data set is described as follows: Determination of COMT inhibiting activity in vitro. The format is biochemical. Conditions: tight binding inhibition constant, 25 μM SAM, substrate esculetin 10 μM, pH 7.4, 37° C.

Data set [2] in a line: Determination of metabolic stability in vitro (glucuronidation). The format is in vitro ADME. Conditions: entacapone = 1.00; human liver microsomes 0.4 mg/ml, UDPGA 5 mM, test substance 100 μM, 60 min at 37° C.; glucuronide HPLC area relative to entacapone.
In data set [3] the test system is isolated rat liver mitochondria. The data set is described as follows: Determination of uncoupling of oxidative phosphorylation in vitro. To be noted: threshold value of uncoupling (sample/Control slope ratio exceeding 2); oxygen consumption of rat liver mitochondria; tested 1-50 μM.

As usually defined, the Ki is a measure of affinity in units of concentration, obtained from inhibition or displacement.

For the compound `O=C(c1cc2cc(O)c(O)c([N+](=O)[O-])c2s1)N1CCOCC1` [Compound of example 16, (5,6-Dihydroxy-7-nitro-benzo[b]thiophen-2-yl)-morpholin-4-yl-methanone], the Ki in data set [1] was 0.9 nM. This compound yielded a Relative glucuronidation in data set [2] below 0.01.

For `O=[N+]([O-])c1c(O)c(O)cc2c(Cl)csc12` [Compound of example 7, 3-Chloro-5,6-dihydroxy-7-nitro-benzo[b]thiophene], in data set [1], the Ki was determined as 1.5 nM.

On to `O=C(O)c1ccc(NC(=O)c2sc3c([N+](=O)[O-])c(O)c(O)cc3c2Cl)cc1` [Compound of example 13, 4-[(3-Chloro-5,6-dihydroxy-7-nitro-benzo[b]thiophene-2-carbonyl)-amino]-benzoic acid], for which the inhibition constant Ki in data set [1] stood at 0.2 nM. In the case of `O=[N+]([O-])c1ccc(O)c([N+](=O)[O-])c1` [DNP, dinitrophenol], in data set [3], the Uncoupling was found to be 10 µM. For `O=C1OCc2c1cc(O)c(O)c2[N+](=O)[O-]` [Compound of example 23, 5,6-Dihydroxy-4-nitro-3H-isobenzofuran-1-one], in data set [1], the inhibition constant Ki turned out to be 2 nM. The compound also displayed a Relative glucuronidation in data set [2] of 0.26. Turning to `CCOC(=O)c1sc2c([N+](=O)[O-])c(O)c(O)cc2c1Cl` [Compound of example 5, 3-Chloro-5,6-dihydroxy-7-nitro-benzo[b]thiophene-2-carboxylic acid ethyl ester], the Ki in data set [1] turned out to be 1.5 nM. Turning to `O=C(c1sc2c([N+](=O)[O-])c(O)c(O)cc2c1Cl)N1CCOCC1` [Compound of example 8, (3-Chloro-5,6-dihydroxy-7-nitro-benzo[b]thiophen-2-yl)-morpholin-4-yl-methanone], in data set [1], the Ki came out at 0.6 nM. Consider `O=C(O)c1cccc(NC(=O)c2sc3c([N+](=O)[O-])c(O)c(O)cc3c2Cl)c1` [Compound of example 12, 3-[(3-Chloro-5,6-dihydroxy-7-nitro-benzo[b]thiophene-2-carbonyl)-amino]-benzoic acid], for which the Ki in data set [1] is 0.6 nM. For the same compound, the Relative glucuronidation in data set [2] is listed as 0.03.
